For one assay, the target named is T1, PI3Kγ (p120γ) (Homo sapiens, UniProt P48736).
T1 construct: purchased Promega V1761
Nature of the assay: Inhibition of PI3K kinase activity (ADP Glo), PI3Kγ. The following applies: read-out: biochemical potency (PI3Kγ IC50). The essentials:
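Recombinant p120γ (8 nM, 2× stock) was preincubated with compound for 1 h at rt in HEPES pH 7.4, NaCl, MgCl2 and 0.05% BSA. Reaction was started with PIP2 (0.1 mg/ml, 2×) and ATP (50 μM, 2×) and ran 60 min at rt. ADP formed was read by ADP-Glo luminescence, and IC50 came from a 4-parameter fit.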

The next assay deals with T2, PI3Kγ (Homo sapiens, UniProt P48736).
T2 construct: host or cells: THP-1
Nature of the assay: PI3Kγ cellular assay in THP-1 cells (AKT pS473 AlphaLISA). The class given is cell-based. The method, boiled down: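 Serum-starved THP-1 cells (1.8×10^5/well, serum-free DMEM) treated with compounds from 4 nM to 30 μM in 2% DMSO, then stimulated and lysed.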
Background: Bead proximity is the source of the signal in Alpha formats.

Setting [1] is: Table 2, rhMCP-1 stimulated AKT pS473, read-out: cellular potency (PI3Kγ IC50).
Setting [2] is: Table 6, rhMCP-1 stimulated AKT pS473, read-out: cellular potency (PI3Kγ IC50).
[3] abbreviates: Table 1, rhMCP-1 stimulated AKT pS473, read-out: cellular potency (PI3Kγ IC50).
Setting [4] is: Table 7, rhMCP-1 stimulated AKT pS473, read-out: cellular potency (PI3Kγ IC50).
Where [5] appears, read: Table 3, rhMCP-1 stimulated AKT pS473, read-out: cellular potency (PI3Kγ IC50).

Where two headings read alike, the source gives them in different places. Bounds are passed on as bounds.

T1 sequence (P48736 whole entry): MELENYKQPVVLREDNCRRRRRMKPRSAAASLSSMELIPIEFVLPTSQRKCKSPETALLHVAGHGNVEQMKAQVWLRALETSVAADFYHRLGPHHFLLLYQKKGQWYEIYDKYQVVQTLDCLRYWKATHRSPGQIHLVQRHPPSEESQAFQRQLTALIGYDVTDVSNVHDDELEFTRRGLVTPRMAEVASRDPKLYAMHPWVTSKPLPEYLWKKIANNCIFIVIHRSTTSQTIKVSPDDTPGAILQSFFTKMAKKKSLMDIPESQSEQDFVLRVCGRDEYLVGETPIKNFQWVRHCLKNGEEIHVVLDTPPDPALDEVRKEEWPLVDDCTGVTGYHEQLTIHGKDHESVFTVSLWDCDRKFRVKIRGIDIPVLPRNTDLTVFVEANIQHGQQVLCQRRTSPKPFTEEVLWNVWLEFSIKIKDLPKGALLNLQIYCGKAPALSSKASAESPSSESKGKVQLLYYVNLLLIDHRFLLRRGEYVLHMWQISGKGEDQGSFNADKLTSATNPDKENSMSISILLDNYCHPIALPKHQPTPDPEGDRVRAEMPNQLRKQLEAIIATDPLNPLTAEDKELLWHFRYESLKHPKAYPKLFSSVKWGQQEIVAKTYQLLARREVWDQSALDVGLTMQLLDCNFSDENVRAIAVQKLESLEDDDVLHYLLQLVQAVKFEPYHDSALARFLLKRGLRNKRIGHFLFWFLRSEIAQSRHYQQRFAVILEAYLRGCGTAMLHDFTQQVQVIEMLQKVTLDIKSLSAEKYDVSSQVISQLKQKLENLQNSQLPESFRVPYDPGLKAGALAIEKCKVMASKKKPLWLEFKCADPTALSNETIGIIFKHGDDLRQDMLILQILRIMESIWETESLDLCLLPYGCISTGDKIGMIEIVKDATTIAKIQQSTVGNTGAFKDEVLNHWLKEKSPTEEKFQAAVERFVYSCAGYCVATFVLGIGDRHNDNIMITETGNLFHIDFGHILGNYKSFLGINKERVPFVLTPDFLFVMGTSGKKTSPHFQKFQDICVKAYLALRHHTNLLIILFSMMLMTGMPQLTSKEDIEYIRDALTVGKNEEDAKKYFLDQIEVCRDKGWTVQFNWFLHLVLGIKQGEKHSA
T2 sequence (P48736 whole entry): as above

The IC50 is the concentration that inhibits the measured activity by half. For `Cc1cc(-c2ccn3nc(N)c(C(=O)N[C@@H](CO)c4ccccc4)c3n2)cc2c1C(=O)N([C@@H](C)C1CC1)C2` [Example 192], the IC50 on PI3Kγ (p120γ) (Table 2, p120γ) was below 100 nM; on PI3Kγ (setting [1]) it was 100 to 1000 nM.

Turning to `C[C@@H](C1CC1)N1Cc2cc(-c3ccn4nc(N)c(C(=O)N[C@H]5CC[C@@](C)(O)CC5)c4n3)cc(S(C)(=N)=O)c2C1=O` (stereo partly shown) [Example 448], the concentration for half-maximal inhibition (IC50) on PI3Kγ (p120γ) (Table 6, p120γ) was below 100 nM; on PI3Kγ (setting [2]), 100 to 1000 nM.

Turning to `Cc1cc(-c2ccn3nc(N)c(C(=O)Nc4ccc(Cl)cc4)c3n2)cc2c1C(=O)N([C@@H](C)C1CC1)C2` [Example 299], the IC50 on PI3Kγ (p120γ) (Table 2, p120γ) is below 100 nM; on PI3Kγ (setting [1]) it was above 1000 nM.

Consider `Cc1cc(-c2ccn3nc(N)c(C(=O)NC4CNC4)c3n2)cc2c1C(=O)N([C@@H](C)C1CC1)C2` [Example 266], for which the IC50 is below 100 nM on PI3Kγ (p120γ) (Table 2, p120γ) and above 1000 nM at PI3Kγ (setting [1]).

Turning to `Cc1cc(-c2ccn3nc(N)c(C(=O)N[C@H]4Cc5ccccc5[C@@H]4O)c3n2)cc2c1C(=O)N([C@@H](C)C1CC1)C2` [Example 265], the IC50 is below 100 nM on PI3Kγ (p120γ) (Table 2, p120γ) and above 1000 nM at PI3Kγ (setting [1]).

As for `Cc1cc(-c2ccn3nc(N)c(C(=O)N[C@@H](C)CO)c3n2)cc2c1C(=O)N([C@@H](C)C1CC1)C2` [Example 221], the IC50 at PI3Kγ (p120γ) (Table 2, p120γ) is below 100 nM; on PI3Kγ (setting [1]), 100 to 1000 nM.

For the compound `Cc1ccncc1NC(=O)c1c(N)nn2ccc(-c3cc4c(c(OC(F)(F)F)c3)C(=O)N([C@@H](C)C3CC3)C4)nc12` [Example 47, (S)-2-Amino-5-(2-(1-cyclopropylethyl)-1-oxo-7-(trifluoromethoxy)isoindolin-5-yl)-N-(4-methylpyridin-3-yl)pyrazolo[1,5-a]pyrimidine-3-carboxamide], the IC50 on PI3Kγ (p120γ) (Table 1, p120γ) is below 100 nM; on PI3Kγ (setting [3]), below 100 nM.

For the compound `Cc1cc(-c2ccn3nc(N)c(C(=O)N[C@H]4C[C@](C)(O)C4)c3n2)cc2c1C(=O)N([C@@H](C)C1CC1)C2` [Example 6, 2-Amino-5-{2-[(1S)-1-cyclopropylethyl]-7-methyl-1-oxo-2,3-dihydro-1H-isoindol-5-yl}-N-[trans-3-hydroxy-3-methylcyclobutyl]pyrazolo[1,5-a]pyrimidine-3-carboxamide], the IC50 at PI3Kγ (p120γ) (Table 1, p120γ) was below 100 nM; on PI3Kγ (setting [3]), below 100 nM.

In the case of `C[C@@H](C1CC1)N1Cc2cc(-c3ccn4nc(N)c(C(=O)NCCCCO)c4n3)cc(C(F)(F)F)c2C1=O` [Example 58, 2-[(S)-1-Cyclopropylethyl]-5-{2-amino-3-[(4-hydroxybutylamino)carbonyl]-1,4,7a-triaza-5-indenyl}-7-(trifluoromethyl)-1-isoindolinone], the IC50 on PI3Kγ (p120γ) (Table 1, p120γ) is below 100 nM; at PI3Kγ (setting [3]), below 100 nM.

Regarding `Cc1cc(-c2ccn3nc(N)c(C(=O)NC4(CCO)CC4)c3n2)cc2c1C(=O)N([C@@H](C)C1CC1)C2` [Example 228], the IC50 on PI3Kγ (p120γ) (Table 2, p120γ) is below 100 nM; on PI3Kγ (setting [1]) it was 100 to 1000 nM.

In the case of `Cc1cc(-c2ccn3nc(N)c(C(=O)NC4CC4)c3n2)cc2c1C(=O)N([C@H]1CCC[C@H](O)C1)C2` [Example 327], the IC50 at PI3Kγ (p120γ) (Table 2, p120γ) was below 100 nM; at PI3Kγ (setting [1]), 100 to 1000 nM.

As to `Cc1cc(-c2ccn3nc(N)c(C(=O)NC4CC45CC5)c3n2)cc2c1C(=O)N([C@@H](C)C1CC1)C2` (stereo partly shown) [Example 277], the IC50 at PI3Kγ (p120γ) (Table 2, p120γ) was below 100 nM; on PI3Kγ (setting [1]), 100 to 1000 nM.

On to `C[C@@H](C1CC1)N1Cc2cc(-c3ccn4nc(N)c(C(=O)Nc5cnn(CC(F)(F)F)c5)c4n3)cc(NS(C)(=O)=O)c2C1=O` [Example 106, 2-Amino-5-{2-[(1S)-1-cyclopropylethyl]-7-methanesulfonamido-1-oxo-2,3-dihydro-1H-isoindol-5-yl}-N-[1-(2,2,2-trifluoroethyl)-1H-pyrazol-4-yl]pyrazolo[1,5-a]pyrimidine-3-carboxamide], for which the IC50 on PI3Kγ (p120γ) (Table 1, p120γ) is below 100 nM; on PI3Kγ (setting [3]), below 100 nM.

For the compound `Cc1cc(-c2ccn3nc(N)c(C(=O)N[C@H]4C[C@H](CO)C4)c3n2)cc2c1C(=O)N([C@@H](C)C1CC1)C2` [Example 12, 2-Amino-5-{2-[(1S)-1-cyclopropylethyl]-7-methyl-1-oxo-2,3-dihydro-1H-isoindol-5-yl}-N-[trans-3-(hydroxymethyl)cyclobutyl]pyrazolo[1,5-a]pyrimidine-3-carboxamide], the IC50 on PI3Kγ (p120γ) (Table 1, p120γ) is below 100 nM; on PI3Kγ (setting [3]) it was below 100 nM.

For `C[C@@H](C1CC1)N1Cc2cc(-c3ccn4nc(N)c(C(=O)Nc5ccnc(C(F)(F)F)c5)c4n3)cc(OC(F)(F)F)c2C1=O` [Example 428], the IC50 on PI3Kγ (p120γ) (Table 6, p120γ) was below 100 nM; at PI3Kγ (setting [2]), above 1000 nM.

Regarding `C[C@@H](C1CC1)N1Cc2cc(-c3ccn4nc(N)c(C(=O)NC5CC5)c4n3)cc(OC(F)(F)F)c2C1=O` [Example 20, 2-Amino-N-cyclopropyl-5-{2-[(1S)-1-cyclopropylethyl]-1-oxo-7-(trifluoromethoxy)-2,3-dihydro-1H-isoindol-5-yl}pyrazolo[1,5-a]pyrimidine-3-carboxamide], the IC50 at PI3Kγ (p120γ) (Table 1, p120γ) was below 100 nM; on PI3Kγ (setting [3]), below 100 nM.

In the case of `C[C@@H](C1CC1)N1Cc2cc(-c3ccn4nc(N)c(C(=O)N[C@H]5CC[C@@](C)(O)CC5)c4n3)cc(N3CCOCC3)c2C1=O` [Example 154, 2-Amino-5-{2-[(1S)-1-cyclopropylethyl]-7-(morpholin-4-yl)-1-oxo-2,3-dihydro-1H-isoindol-5-yl}-N-[cis-4-hydroxy-4-methylcyclohexyl]pyrazolo[1,5-a]pyrimidine-3-carboxamide], the IC50 at PI3Kγ (p120γ) (Table 1, p120γ) was below 100 nM; at PI3Kγ (setting [3]) it was below 100 nM.

As to `C[C@@H](C1CC1)N1Cc2cc(-c3ccn4nc(N)c(C(=O)NC5CC5)c4n3)cnc2C1=O` [Example 455], the IC50 was below 100 nM on PI3Kγ (p120γ) (Table 7, p120γ) and 100 to 1000 nM on PI3Kγ (setting [4]).

Take `C[C@@H](C1CC1)N1Cc2cc(-c3ccn4nc(N)c(C(=O)NC[C@H](O)CO)c4n3)cc(C(F)(F)F)c2C1=O` [Example 348]: the IC50 was below 100 nM on PI3Kγ (p120γ) (Table 3, p120γ) and 100 to 1000 nM at PI3Kγ (setting [5]).

With `Cc1cc(-c2ccn3nc(N)c(C(=O)N[C@H](C)c4ccncc4)c3n2)cc2c1C(=O)N([C@@H](C)C1CC1)C2` [Example 219], the IC50 at PI3Kγ (p120γ) (Table 2, p120γ) was below 100 nM; at PI3Kγ (setting [1]), 100 to 1000 nM.

In the case of `C[C@@H](C1CC1)N1Cc2cc(-c3ccn4nc(N)c(C(=O)N[C@@H](CO)C5CC5)c4n3)cnc2C1=O` [Example 454], the IC50 on PI3Kγ (p120γ) (Table 7, p120γ) is below 100 nM; on PI3Kγ (setting [4]), above 1000 nM.

As to `C[C@H](CO)NC(=O)c1c(N)nn2ccc(-c3cc4c(c(NS(C)(=O)=O)c3)C(=O)N([C@@H](C)C3CC3)C4)nc12` [Example 93, 2-Amino-5-{2-[(1S)-1-cyclopropylethyl]-7-methanesulfonamido-1-oxo-2,3-dihydro-1H-isoindol-5-yl}-N-[(2R)-1-hydroxypropan-2-yl]pyrazolo[1,5-a]pyrimidine-3-carboxamide], the IC50 is below 100 nM at PI3Kγ (p120γ) (Table 1, p120γ) and below 100 nM on PI3Kγ (setting [3]).

Take `Cc1cc(-c2ccn3nc(N)c(C(=O)NC4CC4)c3n2)cc2c1C(=O)N([C@@H](C)C1CC1)C2` [Example 208]: the IC50 on PI3Kγ (p120γ) (Table 2, p120γ) is below 100 nM; at PI3Kγ (setting [1]) it was 100 to 1000 nM.

Take `CC[C@H](CO)NC(=O)c1c(N)nn2ccc(-c3cc4c(c(NS(C)(=O)=O)c3)C(=O)N([C@@H](C)C(F)(F)F)C4)nc12` [Example 119, 2-Amino-N-[(2R)-1-hydroxybutan-2-yl]-5-{7-methanesulfonamido-1-oxo-2-[(2S)-1,1,1-trifluoropropan-2-yl]-2,3-dihydro-1H-isoindol-5-yl}pyrazolo[1,5-a]pyrimidine-3-carboxamide]: the IC50 at PI3Kγ (p120γ) (Table 1, p120γ) was below 100 nM; at PI3Kγ (setting [3]), below 100 nM.

In the case of `C[C@@H](C1CC1)N1Cc2cc(-c3ccn4nc(N)c(C(=O)N[C@@H](CO)C(F)(F)F)c4n3)cc(C(F)(F)F)c2C1=O` [Example 361], the IC50 on PI3Kγ (p120γ) (Table 3, p120γ) was below 100 nM; at PI3Kγ (setting [5]), 100 to 1000 nM.

As to `C[C@@H](C1CC1)N1Cc2cc(-c3ccn4nc(N)c(C(=O)N[C@@H](CO)C5CC5)c4n3)cc(OC(F)(F)F)c2C1=O` [Example 26, 2-Amino-N-[(1R)-1-cyclopropyl-2-hydroxyethyl]-5-{2-[(1S)-1-cyclopropylethyl]-1-oxo-7-(trifluoromethoxy)-2,3-dihydro-1H-isoindol-5-yl}pyrazolo[1,5-a]pyrimidine-3-carboxamide], the IC50 at PI3Kγ (p120γ) (Table 1, p120γ) was below 100 nM; on PI3Kγ (setting [3]), below 100 nM.

`CC(=O)N1CC(NC(=O)c2c(N)nn3ccc(-c4cc(C)c5c(c4)CN([C@@H](C)C4CC4)C5=O)nc23)C1` [Example 194]: the IC50 on PI3Kγ (p120γ) (Table 2, p120γ) is below 100 nM; at PI3Kγ (setting [1]) it was 100 to 1000 nM.

For `Cc1cc(-c2ccn3nc(N)c(C(=O)NC4CC4)c3n2)cc2c1C(=O)N(CC(C)(C)O)C2` [Example 319], the IC50 was below 100 nM on PI3Kγ (p120γ) (Table 2, p120γ) and 100 to 1000 nM at PI3Kγ (setting [1]).

`CC(C)NC(=O)c1c(N)nn2ccc(-c3cc4c(c(NS(C)(=O)=O)c3)C(=O)N([C@@H](C)C3CC3)C4)nc12` [Example 75, 2-Amino-5-{2-[(1S)-1-cyclopropylethyl]-7-methanesulfonamido-1-oxo-2,3-dihydro-1H-isoindol-5-yl}-N-(propan-2-yl)pyrazolo[1,5-a]pyrimidine-3-carboxamide]: the IC50 at PI3Kγ (p120γ) (Table 1, p120γ) is below 100 nM; on PI3Kγ (setting [3]), below 100 nM.

These data come from patent publication US20230024302A1, “2,3,5-TRISUBSTITUTED PYRAZOLO[1,5-A]PYRIMIDINE COMPOUNDS” (Arcus Biosciences, Inc., priority 2019, published 2023).
